Reference: US10300140B2, “Sur-binding proteins against ERBB3” (I2 PHARMACEUTICALS, INC., priority 2012, dated 2019)

System: SKBR3 and BT474 cells
Test: Enhancement of MK-2206 in SKBR3 and BT474 proliferation
Format: cell-based, human
Details: 0.125 or 0.375 nM NRG; single agent
Procedure: The ability of the SgGs to enhance AKT inhibition in unstimulated or NRG-stimulated SKBR3 cells was compared. An AKT inhibitor, MK-2206, was tested against the ErbB2 overexpressing cell lines SKBR3 (13I, 13J) and BT474 (13K, 13L). The indicated amounts of MK-2206 were applied to the cells and they were allowed to proliferate in complete medium containing 10% fetal bovine serum for 6 days (13I, 13K, 13L) or 3 days (13J). Cell content was measured using Cell Titer-Glo® (Promega).

For `NC1(c2ccc(-c3nc4ccn5c(=O)[nH]nc5c4cc3-c3ccccc3)cc2)CCC1` [MK-2206], the “ability to inhibit cell proliferation when cells stimulated with NRG” value was “dramatically reduced”.
